Test system: Staphylococcus aureus 6538 P
Assay: antibacterial effect / germ reduction of finished textiles after washing, test standard not stated
Type: cell-based
Conditions: less pronounced than tannic acid, gallic acid, stearic acid or L-phenylalanine
Experimental: The two samples finished in this way are washed at 40° C. and dried between the washing cycles. After 20 and 30 washing cycles, the antibacterial effect against Staphylococcus aureus 6538 P is tested.
In an experimental finishing. 14 kilograms of an orange colored tricot made of polyester/polyamide/elastan are prewashed at 60° C., then 280 grams of L-phenylalanine and 110 liters of water are added. Allow to prerun for 10 minutes, heated to 60° C. at 3° C. per minute and left to run for 15 minutes at 60° C. 80 grams of Sanitized T 99-19 in 2 liters of water are added and left to run for a further 30 minutes at 60° C. The liquor is cooled to 35° C. and then drawn off. 40 liters of water for rinsing are added, left to run for two minutes and the rinse water is drawn off. The textile is discharged via press-off rolls and dried on a tenter at 120° C. After 50 washing cycles in accordance with EN ISO 6330 (6A), washed with the colorfast detergent according to ECE 77, a sample achieves a germ count reduction of factor 100 (log reduction=2.0) compared with the inoculum.

| Structure (SMILES) | antimicrobial effect after washing when used as primer (P), in words |
| --- | --- |
| CCCCCCCCCCCCCCCCCCN [octadecylamine] | improvement in the antimicrobial effect after washing |
| O=C(O)c1ccc(C(=O)O)cc1 [terephthalic acid, benzene-1,4-dicarboxyolic acid] | improvement in the antimicrobial effect after washing |
